This passage reports IC50 results from patent US11083729B2, “Methods of treating cancer with small molecule NF-κB inhibitors” (ImmuneTarget, Inc., priority 2017, dated 2021).

Structures are written as SMILES. pIC50: −log10 of the molar value. Bounds are passed on as bounds.

The test deals with T1, c-Rel protein (Homo sapiens, UniProt Q04864).
T1 sequence (Q04864 1-619): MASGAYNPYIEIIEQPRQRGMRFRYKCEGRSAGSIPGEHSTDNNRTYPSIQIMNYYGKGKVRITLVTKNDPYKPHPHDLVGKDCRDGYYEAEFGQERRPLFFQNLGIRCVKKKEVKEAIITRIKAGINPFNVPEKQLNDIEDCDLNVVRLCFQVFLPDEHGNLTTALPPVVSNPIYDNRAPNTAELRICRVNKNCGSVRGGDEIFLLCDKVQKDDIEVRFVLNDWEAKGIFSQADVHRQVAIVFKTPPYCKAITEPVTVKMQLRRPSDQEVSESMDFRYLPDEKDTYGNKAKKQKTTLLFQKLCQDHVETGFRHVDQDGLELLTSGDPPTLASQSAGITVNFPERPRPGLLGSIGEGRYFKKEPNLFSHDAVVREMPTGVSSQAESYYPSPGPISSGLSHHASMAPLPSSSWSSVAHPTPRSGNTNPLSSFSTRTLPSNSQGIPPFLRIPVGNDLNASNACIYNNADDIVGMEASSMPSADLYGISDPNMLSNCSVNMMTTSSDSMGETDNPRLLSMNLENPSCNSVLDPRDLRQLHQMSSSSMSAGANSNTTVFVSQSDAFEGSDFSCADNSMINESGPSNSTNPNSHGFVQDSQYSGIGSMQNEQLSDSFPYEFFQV
Briefly: Electrophoretic Mobility Shift Assay (EMSA), c-Rel binding to CD28RE oligonucleotide. The following applies: 10 nM c-Rel protein. As to the method:
DNA binding reaction (20 μL) was carried out in 1×DNA Binding Buffer (10 mM Tris, 40 mM NaCl, 1 mM EDTA, 4% glycerol) with 10 nM c-Rel protein and 0.5 ng phosphor-labeled CD28RE oligonucleotide for 10 minutes at room temperature in 96-well plates. Test compounds, in serial dilutions, were added into each well, and further incubated for 15 minutes before loading onto native 5% polyacrylamide gel. Electrophoresis proceeded for 2.5 hours at 160V. Radioactive signals were quantified using Phospho-Imager. IC50 of compounds of example 1 to 75 were determined by quantifying the intensity of Rel/NF-κB inhibition in EMSA using phospho-imager. An example of EMSA data of the present invention is shown for compound 6 in FIG. 2.
Consider `CCCCOc1ccc2cc3c(=O)[nH]c(=O)nc-3oc2c1F` [compound 45], for which the negative logarithm of the IC50 (pIC50) is over 6.30.
The result for `CCCCn1c(=O)nc2oc3cc(OCC)ccc3cc-2c1=O` [compound 24, 3-(n-butyl)-8-ethoxy-2H-chromeno[2,3-d]pyrimidine-2,4(3H)-dione] reads over 6.00.
Under `O=C(O)CCCCCOc1ccc2cc3c(=O)[nH]c(=O)nc-3oc2c1Cl` [compound 53, 6-((9-chloro-2,4-dioxo-3,4-dihydro-2H-chromeno[2,3-d]pyrimidin-8-yl)oxy)hexanoic acid] stands over 5.30; under `CC(=O)OCCCCOc1ccc2cc3c(=O)[nH]c(=O)nc-3oc2c1Cl` [compound 60, 4-((9-chloro-2,4-dioxo-3,4-dihydro-2H-chromeno[2,3-d]pyrimidin-8-yl)oxy)butyl acetate], over 5.30.
With `COCCOCCOc1cc2oc3nc(=O)[nH]c(=O)c-3cc2cc1Cl` [compound 64], the pIC50 was over 6.00.
Under `COCCOCCOc1ccc2cc3c(=O)[nH]c(=O)nc-3oc2c1` [compound 61, 8-(2-(2-methoxyethoxy)ethoxy)-2H-chromeno[2,3-d]pyrimidine-2,4(3H)-dione] stands over 6.00.
Consider `CCCCCOc1cc2oc3nc(=O)[nH]c(=O)c-3cc2cc1F` [compound 30], for which the pIC50 was over 6.30.
For `COCCOCCCOc1cc2oc3nc(=O)[nH]c(=O)c-3cc2cc1F` [compound 75, 7-fluoro-8-(3-(2-methoxyethoxy)propoxy)-2H-chromeno[2,3-d]pyrimidine-2,4(3H)-dione], the pIC50 was over 6.00.
Consider `CCOc1ccc2cc3c(=O)[nH]c(=O)nc-3oc2c1` [compound 13, 8-ethoxy-2H-chromeno[2,3-d]pyrimidine-2,4(3H)-dione], for which the negative logarithm of the IC50 (pIC50) was over 6.00.
Take `Cc1ccc2cc3c(=O)[nH]c(=O)nc-3oc2c1` [compound 12, 8-methyl-2H-chromeno[2,3-d]pyrimidine-2,4(3H)-dione]: the pIC50 was over 6.00.
Under `CCCCOc1cc2oc3nc(=O)[nH]c(=O)c-3cc2cc1F` [compound 29] stands over 6.30; under `O=c1[nH]c(=S)nc2oc3cc(O)ccc3cc1-2` [compound 16, 8-hydroxy-2-thioxo-2H-chromeno[2,3-d]pyrimidin-4(3H)-one], over 6.30.
Under `COc1cccc2cc3c(=O)[nH]c(=O)nc-3oc12` [compound 1, 9-methoxy-2H-chromeno[2,3-d]pyrimidine-2,4(3H)-dione] stands over 5.70.
Under `CC(C)CCCOc1cc2oc3nc(=O)[nH]c(=O)c-3cc2cc1F` [compound 35] stands over 6.00.
For `COCCOCCOc1ccc2cc3c(=O)[nH]c(=O)nc-3oc2c1F` [compound 63], the pIC50 was over 6.00.
For `CCCCCCOc1ccc2cc3c(=O)[nH]c(=O)nc-3oc2c1` [compound 21, 8-(n-hexyloxy)-2H-chromeno[2,3-d]pyrimidine-2,4(3H)-dione], the negative logarithm of the IC50 (pIC50) was over 6.00.
The result for `COCCOCCOc1cc2oc3nc(=O)[nH]c(=O)c-3cc2cc1F` [compound 65] reads over 6.00; that for `COCCOCCOc1ccc2cc3c(=O)[nH]c(=O)nc-3oc2c1Cl` [compound 62], over 6.00; that for `COCCOCCCOc1ccc2cc3c(=O)[nH]c(=O)nc-3oc2c1Cl` [compound 72], over 6.00.
Under `CC(C)(C)CCOc1cc2oc3nc(=O)[nH]c(=O)c-3cc2cc1F` [compound 34] stands over 6.30; under `CCCCCCOc1cc2oc3nc(=O)[nH]c(=O)c-3cc2cc1F` [compound 31], over 6.30.
As for `CC(C)COc1cc2oc3nc(=O)[nH]c(=O)c-3cc2cc1Cl` [compound 38], the pIC50 is over 6.30.
`CCCCCCCOc1ccc2cc3c(=O)[nH]c(=O)nc-3oc2c1F` [compound 52]: the negative logarithm of the IC50 (pIC50) was over 6.30.
Regarding `CC(=O)OCCCCCCOc1ccc2cc3c(=O)[nH]c(=O)nc-3oc2c1Cl` [compound 58], the negative-log IC50 (pIC50) was over 5.30.
Turning to `CCCCCCCOc1cc2oc3nc(=O)[nH]c(=O)c-3cc2cc1F` [compound 32], the pIC50 was over 6.30.
Turning to `Cc1ccc2cc3c(=O)[nH]c(=S)nc-3oc2c1` [compound 17, 8-methyl-2-thioxo-2H-chromeno[2,3-d]pyrimidin-4(3H)-one], the pIC50 is over 6.30.
Regarding `COc1ccc2cc3c(=O)[nH]c(=O)nc-3oc2c1` [compound 6, 8-methoxy-2H-chromeno[2,3-d]pyrimidine-2,4(3H)-dione], the pIC50 was over 6.00.
Turning to `CCCCCCOc1cc2oc3nc(=O)[nH]c(=O)c-3cc2cc1Cl` [compound 37], the pIC50 is over 6.30.
The result for `CC(C)(C)CCOc1ccc2cc3c(=O)[nH]c(=O)nc-3oc2c1Cl` [compound 41] reads over 6.30; that for `COCCOCCCOc1ccc2cc3c(=O)[nH]c(=O)nc-3oc2c1` [compound 71], over 6.00; that for `COCCCCOc1ccc2cc3c(=O)[nH]c(=O)nc-3oc2c1F` [compound 68], over 6.00.
Regarding `CC(C)CCOc1cc2oc3nc(=O)[nH]c(=O)c-3cc2cc1F` [compound 33], the negative-log IC50 (pIC50) was over 6.30.
For the compound `COc1ccc2oc3nc(=O)[nH]c(=O)c-3cc2c1` [compound 10, 7-methoxy-2H-chromeno[2,3-d]pyrimidine-2,4(3H)-dione], the pIC50 was over 6.00.
For the compound `CC(C)CCOc1ccc2cc3c(=O)[nH]c(=O)nc-3oc2c1Cl` [compound 40], the negative logarithm of the IC50 (pIC50) is over 6.30.
The result for `CC(C)CCCOc1ccc2cc3c(=O)[nH]c(=O)nc-3oc2c1F` [compound 47] reads over 6.00.
As for `COc1cc(Br)cc2cc3c(=O)[nH]c(=O)nc-3oc12` [compound 4, 7-bromo-9-methoxy-2H-chromeno[2,3-d]pyrimidine-2,4(3H)-dione], the negative logarithm of the IC50 (pIC50) was over 5.70.
In the case of `CC(C)COc1ccc2cc3c(=O)[nH]c(=O)nc-3oc2c1` [compound 23, 8-isobutoxy-2H-chromeno[2,3-d]pyrimidine-2,4(3H)-dione], the pIC50 is over 6.00.
Under `O=C(O)CCCOc1ccc2cc3c(=O)[nH]c(=O)nc-3oc2c1Cl` [compound 55] stands over 5.30; under `CCOc1ccc2cc3c(=O)[nH]c(=O)nc-3oc2c1Cl` [compound 22, 9-chloro-8-ethoxy-2H-chromeno[2,3-d]pyrimidine-2,4(3H)-dione], over 6.00; under `CCCc1cc2oc3nc(=O)[nH]c(=O)c-3cc2cc1Cl` [compound 25, 7-chloro-8-propyl-2H-chromeno[2,3-d]pyrimidine-2,4(3H)-dione], over 6.00.
On to `COc1cc(OC)c2cc3c(=O)[nH]c(=S)nc-3oc2c1` [compound 18, 6,8-dimethoxy-2-thioxo-2H-chromeno[2,3-d]pyrimidin-4(3H)-one], for which the pIC50 was over 6.30.
As for `COCCCCOc1ccc2cc3c(=O)[nH]c(=O)nc-3oc2c1Cl` [compound 66, 9-chloro-8-(4-methoxybutoxy)-2H-chromeno[2,3-d]pyrimidine-2,4(3H)-dione], the negative-log IC50 (pIC50) is over 6.00.
Under `CCCCOc1ccc2cc3c(=O)[nH]c(=O)nc-3oc2c1` [compound 50] stands over 6.00; under `CCCCOc1ccc2cc3c(=O)[nH]c(=O)nc-3oc2c1Cl` [compound 43], over 6.30.
Under `O=c1nc2oc3cc(O)ccc3cc-2c(=O)[nH]1` [compound 11, 8-hydroxy-2H-chromeno[2,3-d]pyrimidine-2,4(3H)-dione] stands over 6.00; under `COc1ccc2cc3c(=O)[nH]c(=S)nc-3oc2c1` [compound 8, 8-methoxy-2-thioxo-2H-chromeno[2,3-d]pyrimidin-4(3H)-one], over 6.30.
